Results published in ChEMBL document CHEMBL1201862, “PubChem BioAssay data set” (2004).
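Compound exposure: 48 hours, 5 concentrations, 96-well plates. Abbreviation: GI50, concentration required for 50% inhibition of growth.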 Calls of active or inactive are those of the source. Cut-off read from the data, not from the text of the source: active = GI50 up to about 1.1 µM and inactive = higher.

Tests used:
Experiment in all cases: growth of human tumour cells (NCI), 48 h
[1] = system: MOLT-4
[2] = system: MCF7
[3] = system: RPMI-8226
[4] = system: HT-29
[5] = system: NCI-H460
[6] = system: OVCAR-3
[7] = system: SR
[8] = system: NCI/ADR-RES
[9] = system: BT-549
[10] = system: SF-268
[11] = system: SN12C
[12] = system: NCI-H23
[13] = system: HL-60
[14] = system: OVCAR-4
[15] = system: OVCAR-8
[16] = system: LOX IMVI
[17] = system: MDA-MB-231
[18] = system: A498
[19] = system: T47D

Measured: GI50

COc1ccc2nc3n(c2c1)C(=O)c1ccccc1-3
inactive: [1] > 100 µM | [2] > 100 µM | [3] > 100 µM | [4] > 100 µM | [5] > 100 µM | [6] > 100 µM | [7] > 100 µM | [8] > 100 µM | [9] > 10 µM | [10] > 100 µM | [11] > 100 µM | [12] > 100 µM | [13] > 100 µM | [14] > 100 µM | [15] > 100 µM

Cc1cc(S(=O)(=O)/N=C2\NCCN2Cc2ccccc2)c(S)cc1Cl
inactive: [1] 47.2 µM | [2] > 100 µM | [3] 10.5 µM | [4] > 100 µM | [5] > 100 µM | [6] > 100 µM | [8] > 100 µM | [9] > 100 µM | [16] > 100 µM | [10] 88.3 µM | [11] > 100 µM | [12] > 100 µM | [17] > 100 µM | [13] > 100 µM | [14] > 100 µM | [15] > 100 µM

CC(=O)N/C(=C\c1ccc(Cc2nc3c([nH]2)C(=O)c2ccccc2C3=O)cc1)c1nc2c([nH]1)C(=O)c1ccccc1C2=O
inactive: [1] > 100 µM | [18] > 100 µM | [3] > 100 µM | [4] > 100 µM | [5] > 100 µM | [6] > 100 µM | [16] > 100 µM | [10] > 100 µM | [11] > 100 µM | [12] > 100 µM | [13] > 100 µM | [14] > 100 µM | [15] 43.5 µM

COc1ccc(C(=O)/C=C/c2ccc(OCCCOc3ccc(/C=C/C(=O)c4ccc(OC)c(OC)c4)cc3)cc2)cc1OC
inactive: [1] > 100 µM | [2] > 100 µM | [3] > 100 µM | [4] > 100 µM | [5] > 100 µM | [7] > 100 µM | [8] > 100 µM | [10] > 100 µM | [11] > 100 µM | [17] > 100 µM | [13] > 100 µM | [14] > 100 µM | [19] > 100 µM | [15] > 100 µM

CC1(C)N=C(Oc2ccccc2)n2nccc2N1
inactive: [1] > 100 µM | [18] > 100 µM | [3] > 100 µM | [4] > 100 µM | [5] 75 µM | [6] > 100 µM | [7] 61.4 µM | [16] 53.8 µM | [10] > 100 µM | [11] > 100 µM | [12] > 100 µM | [13] > 100 µM | [14] > 100 µM

C=C(C)[C@@]1(O)CCCC[C@@H]1CC(Sc1ccccc1)Sc1ccccc1
inactive: [1] 9.08 µM | [2] 24.7 µM | [18] 29.9 µM | [3] 11.3 µM | [4] 18.2 µM | [5] 13.9 µM | [7] 14.1 µM | [8] 16.3 µM | [16] 14.6 µM | [10] 15.7 µM | [11] 16.4 µM | [12] 14.2 µM | [17] 17.1 µM | [13] 15.2 µM | [14] 13.6 µM | [19] 12.4 µM | [15] 19.5 µM

COc1cc(/C=N/n2c(C)n[nH]c2=O)cc(OC)c1OC
inactive: [1] > 100 µM | [2] > 100 µM | [18] 23.4 µM | [4] 90.4 µM | [5] > 100 µM | [6] 51.4 µM | [8] > 100 µM | [9] 78 µM | [10] > 100 µM | [11] > 100 µM | [12] > 100 µM | [17] 57.5 µM | [14] > 100 µM | [19] 71.3 µM | [15] > 100 µM

CCOC(=O)c1[nH]c(-c2[nH]c(-c3[nH]c(-c4[nH]c(C(=O)OCC)c(C)c4C(=O)OCC)c(C(=O)OCC)c3C)c(C)c2C(=O)OCC)c(C(=O)OCC)c1C
inactive: [1] > 100 µM | [2] > 100 µM | [18] > 100 µM | [3] > 100 µM | [4] > 100 µM | [5] > 100 µM | [6] > 100 µM | [8] > 100 µM | [16] > 100 µM | [10] > 100 µM | [11] > 100 µM | [12] > 100 µM | [17] > 100 µM | [13] > 100 µM | [14] > 100 µM | [19] > 100 µM | [15] > 100 µM

COc1ccc(-c2c(N)n(-c3nc4ccccc4s3)c(=O)c3cc([N+](=O)[O-])ccc23)cc1
inactive: [1] 3.18 µM | [2] 44.8 µM | [18] 74 µM | [3] 1.81 µM | [4] 49 µM | [5] 3.69 µM | [6] 17 µM | [7] 8.39 µM | [8] 17 µM | [9] 89.9 µM | [16] 14.9 µM | [10] 17.2 µM | [12] 13.8 µM | [17] 16.9 µM | [13] 99.8 µM | [14] 24.1 µM | [15] 11.2 µM

O=C(O)C12C=CC(C1)c1ccccc12 (centres undefined)
inactive: [1] > 100 µM | [18] > 100 µM | [3] > 100 µM | [4] > 100 µM | [5] > 100 µM | [6] > 100 µM | [7] > 100 µM | [16] > 100 µM | [10] > 100 µM | [11] > 100 µM | [12] > 100 µM | [13] > 100 µM | [14] > 100 µM | [15] > 100 µM

CCCCn1c(-c2ccccc2)cs/c1=N\N=C1C=C(C(C)(C)C)C(=O)C(C(C)(C)C)=C1
inactive: [1] > 100 µM | [18] > 100 µM | [4] > 100 µM | [5] > 100 µM | [6] > 100 µM | [7] > 100 µM | [16] > 100 µM | [10] > 100 µM | [11] > 100 µM | [12] > 100 µM | [13] > 100 µM | [14] > 100 µM | [15] > 100 µM

O=C(CSc1nc2ccc(I)cc2c(=O)n1Cc1ccccc1)NN1C(=O)CCC1=O
inactive: [1] 42.1 µM | [2] 41.5 µM | [3] 37.7 µM | [4] 48.6 µM | [5] 63.8 µM | [6] 23.5 µM | [7] 31.9 µM | [8] 37.2 µM | [16] 59.3 µM | [10] 39.1 µM | [11] 35.7 µM | [12] 17.6 µM | [17] 32.4 µM | [13] 28.6 µM | [14] 21.5 µM | [19] 40 µM | [15] 37.6 µM

N/C(=N\O)N/N=C/c1ccc2c(c1)OCO2
inactive: [1] 24.8 µM | [2] 28.6 µM | [18] 21 µM | [3] 21.2 µM | [4] 36.1 µM | [5] 27 µM | [6] 14.2 µM | [7] 7.87 µM | [8] 6.75 µM | [16] 17.4 µM | [10] 13.9 µM | [11] 34.4 µM | [12] 27 µM | [17] 38.5 µM | [13] 18.2 µM | [14] 26.4 µM | [19] 46 µM | [15] 12.5 µM

Oc1c2cc(Cl)cc1COCc1cc(Cl)cc(c1O)COCc1cc(Cl)cc(c1O)COC2
inactive: [2] 74.3 µM | [18] 82.8 µM | [3] > 100 µM | [5] 22.9 µM | [6] 47.2 µM | [7] > 100 µM | [8] 38.8 µM | [9] 31.3 µM | [16] 36.7 µM | [12] 20.8 µM | [13] 2.88 µM | [14] 23 µM | [19] 15.7 µM | [15] 11.8 µM

COC(=O)C1C2CC3C1C3C2C(=O)OC (centres undefined)
inactive: [1] > 100 µM | [2] > 100 µM | [18] > 100 µM | [4] > 100 µM | [5] > 100 µM | [6] > 100 µM | [8] > 100 µM | [16] > 100 µM | [10] > 100 µM | [11] > 100 µM | [12] > 100 µM | [17] > 100 µM | [14] > 100 µM | [19] > 100 µM | [15] > 100 µM

CNC(=O)OCc1nc(N=[N+]=[N-])n(C)c1COC(=O)NC
inactive: [1] 26 µM | [2] 38 µM | [18] 32.3 µM | [3] 28.6 µM | [4] 58.3 µM | [5] 29.6 µM | [6] 39.2 µM | [7] 21.3 µM | [8] 69.8 µM | [9] > 10 µM | [16] 60.8 µM | [10] 32.1 µM | [11] 55.7 µM | [12] 54.2 µM | [17] 95.5 µM | [13] 17.5 µM | [14] 37.1 µM | [15] 58.9 µM

O=CN1CCN(C(=O)c2ccc(Cl)cc2Cl)C1=S
inactive: [1] > 100 µM | [2] 34.6 µM | [18] 42 µM | [3] 20.5 µM | [4] > 100 µM | [5] > 100 µM | [6] 40.3 µM | [8] > 100 µM | [9] > 100 µM | [16] 32.3 µM | [10] 26.1 µM | [11] 43 µM | [12] > 100 µM | [17] > 100 µM | [13] 20.4 µM | [14] > 100 µM | [19] 32.4 µM | [15] > 100 µM
